Measured values reported in patent publication US10334849B2, “Salts of carboxylic acid herbicides” (Monsanto Technology LLC, priority 2011, dated 2019).

System: velvetleaf (ABUTH)
Assay: not given
Details: application rate 140 g a.e./ha, 21 days after treatment
Procedure: In this example, the herbicidal effectiveness of selected dicamba salts prepared in accordance with Example 1 was evaluated in greenhouse testing. The herbicidal effectiveness data set forth herein report “Weed killing efficacy” as a percentage following a standard procedure in the art which reflects a visual assessment of plant mortality and growth reduction by comparison with untreated plants, made by technicians specially trained to make and record such observations. Such measurements are relied upon and regularly reported by Monsanto Company in the course of its herbicide business.
The following procedure was used for testing compositions of this example to determine herbicidal effectiveness.
Seeds of velvetleaf (ABUTH) were planted in 85 mm square pots in a soil mix which was previously steam sterilized and prefertilized with a 14-14-14 NPK slow release fertilizer at a rate of 3.6 kg/m^3. The pots were placed in a greenhouse with sub-irrigation. About one week after emergence, seedlings were thinned as needed, including removal of any unhealthy or abnormal plants, to create a uniform series of test pots.
The plants were maintained for the duration of the test in the greenhouse where they received a minimum of 14 hours of light per day. If natural light was insufficient to achieve the daily requirement, artificial light with an intensity of approximately 475 microeinsteins was used to make up the difference. Exposure temperatures were not precisely controlled but averaged about 27° C. during the day and about 21° C. during the night. Plants were sub-irrigated throughout the test to ensure adequate soil moisture levels.
Application of herbicide salt solutions were made by spraying with a track sprayer fitted with a 9501E nozzle calibrated to deliver a spray volume of approximately 38 liters per hectare (l/ha). After treatment, pots were returned to the greenhouse until ready for evaluation.
For evaluation of herbicidal effectiveness, all plants in the test were examined by a single practiced technician, who recorded percent control, a visual measurement of the effectiveness of each treatment by comparison with untreated plants. […] Control of 85% or more is in most cases considered acceptable for normal herbicide use. […] The weed killing efficacy was evaluated 21 days after the treatment.

Row | Compound | Weed killing efficacy (%)
1 | CCc1ncc[nH]1.COc1c(Cl)ccc(Cl)c1C(=O)O [2-ethyl imidazolium dicamba] | 38.3
2 | CCc1nc(C)c[nH]1.COc1c(Cl)ccc(Cl)c1C(=O)O [2-ethyl-4-methyl imidazolium dicamba] | 30.0
3 | COc1c(Cl)ccc(Cl)c1C(=O)O.Cc1ncc[nH]1 [2-methyl imidazolium dicamba] | 40.0

Same assay, conditions: application rate 280 g a.e./ha, 21 days after treatment

Row | Compound | Weed killing efficacy (%)
4 | CCc1ncc[nH]1.COc1c(Cl)ccc(Cl)c1C(=O)O [2-ethyl imidazolium dicamba] | 67.5
5 | CCc1nc(C)c[nH]1.COc1c(Cl)ccc(Cl)c1C(=O)O [2-ethyl-4-methyl imidazolium dicamba] | 62.5
6 | COc1c(Cl)ccc(Cl)c1C(=O)O.Cc1ncc[nH]1 [2-methyl imidazolium dicamba] | 66.7

Same assay, conditions: application rate 560 g a.e./ha, 21 days after treatment

Row | Compound | Weed killing efficacy (%)
7 | CCc1ncc[nH]1.COc1c(Cl)ccc(Cl)c1C(=O)O [2-ethyl imidazolium dicamba] | 80.8
8 | CCc1nc(C)c[nH]1.COc1c(Cl)ccc(Cl)c1C(=O)O [2-ethyl-4-methyl imidazolium dicamba] | 83.3
9 | COc1c(Cl)ccc(Cl)c1C(=O)O.Cc1ncc[nH]1 [2-methyl imidazolium dicamba] | 85.0

System: not listed separately
Assay: Tube test: dicamba volatilized from spray solution into air
Assay type: physicochemical
Details: dicamba salt 2 wt. % a.e., potassium glyphosate 6 wt. % a.e.; air about 35° C., about 40% RH, 24 hours; vs 2 wt. % a.e. CLARITY without glyphosate
Procedure: Volatility reduction may be quantified experimentally by methods known in the art. In one method the volatility of solutions containing a herbicide salt can be measured in the gas phase (air) via tube tests. In a tube test, a sample of the herbicide solution is placed in a test tube that has been modified to allow air flow through the tube. A selective collection medium is attached to the outlet of the tube to collect volatilized herbicide. The collection medium is then analyzed for the respective herbicide. For further details see the Tube Test Protocol described in Example 2.
(§1) In this example, various salts of dicamba prepared in Example 1 were selected for volatility testing. As described below, spray solutions containing the selected dicamba salts were prepared and subjected to volatility testing via the tube test and/or humidome protocols. Typically, the spray solutions containing the selected dicamba salts also contained potassium glyphosate co-herbicide. Aqueous test spray solutions containing selected salts of dicamba and potassium glyphosate were prepared by mixing a solution of dicamba salt with a solution of potassium glyphosate salt and adjusting the relative proportion and/or diluting with water to arrive at the desired concentration of dicamba and glyphosate.
To measure the dicamba concentration in the gas phase (air) volatilized from the spray solutions, 10 mL samples of each solution were placed into a 50 mL plastic centrifuge tube with one hole approximately ⅛ in (3.2 mm) diameter drilled into the tube at the mark between 20 mL and 30 mL lines. A 22 mm×30 mm polyurethane foam (PUF), cut from a 76 mm length, available from SKC Inc., catalog #P22692, was placed into a glass tube of approximately 20 mm diameter with parafilm wrapped around the outside to obtain a snug fit into the top of the centrifuge tube. A hose was connected to the other end of the glass tube leading to a vacuum line. The air flow was regulated to approximately 2 L/min using a flow controller. Air was pulled through the tube at approximately 2 L/min for 24 hours. Note that the air conditions of flow rate, temperature, pressure and composition (e.g., relative humidity) are not narrowly critical as long as the various samples are analyzed under similar conditions. For instance, air at from about 5° C. to about 40° C., from about 0.5 to about 1.5 bar pressure, from about 0% to about 95% relative humidity, and at a flow rate of from about 0.1 to 10 L/min-mL sample could be suitably used for volatility analysis. In this test, the air pulled through the tubes was at about 35° C. and about 40% relative humidity. The PUF was removed from the glass tube, extracted with 20 mL methanol and the resulting solution analyzed for dicamba concentration using liquid chromatography-mass spectroscopy (LC-MS) methods known in the art.
For comparison, samples of spray solutions containing 2 wt. % a.e. of the diglycolamine salt of dicamba (i.e., CLARITY) were also subjected to the tube test protocol.
(§2) The reduction in volatility is calculated relative to the volatility of the samples containing the diglycolamine salt of dicamba.

Row | Compound | Volatility Reduction Over DGA Dicamba Spray (%) Tube Test [%]
10 | C1CCC(N2CCNCC2)CC1.COc1c(Cl)ccc(Cl)c1C(=O)O [Salt 3] | 75
11 | COc1c(Cl)ccc(Cl)c1C(=O)O.OCCN1CCNCC1 [Salt 4] | 69
12 | CCCCN1CCNCC1.COc1c(Cl)ccc(Cl)c1C(=O)O [Salt 5] | 70
13 | CCN1CCNCC1.COc1c(Cl)ccc(Cl)c1C(=O)O [Salt 6] | 83
14 | CC(C)c1ncc[nH]1.COc1c(Cl)ccc(Cl)c1C(=O)O [Salt 9] | 65
15 | CCc1nc(C)c[nH]1.COc1c(Cl)ccc(Cl)c1C(=O)O [Salt 10] | 72
16 | CCc1ncc[nH]1.COc1c(Cl)ccc(Cl)c1C(=O)O [Salt 11] | 67
17 | CCCN1CCC(=O)CC1.COc1c(Cl)ccc(Cl)c1C(=O)O [Salt 16] | 20
18 | CC(C)CN1CCC(=O)CC1.COc1c(Cl)ccc(Cl)c1C(=O)O [Salt 17] | 57
19 | C1CCN(C2CCNCC2)CC1.COc1c(Cl)ccc(Cl)c1C(=O)O.COc1c(Cl)ccc(Cl)c1C(=O)O [Salt 19] | 23
20 | C(CC1CCNCC1)CC1CCNCC1.COc1c(Cl)ccc(Cl)c1C(=O)O.COc1c(Cl)ccc(Cl)c1C(=O)O [Salt 22] | 60
21 | CN1CCN(C)CC1.COc1c(Cl)ccc(Cl)c1C(=O)O [Salt 23] | 23
22 | COc1c(Cl)ccc(Cl)c1C(=O)O.OCCN1CCN(CCO)CC1 [Salt 24] | 57

Same assay, conditions: dicamba salt 10 wt. % a.e., no potassium glyphosate; air about 35° C., about 40% RH, 24 hours; vs 2 wt. % a.e. CLARITY

Row | Compound | Volatility Reduction Over DGA Dicamba Spray (%) Tube Test [%]
23 | CCc1nc(C)c[nH]1.COc1c(Cl)ccc(Cl)c1C(=O)O [Salt 10] | 88

System: not listed separately
Assay: Humidome test: dicamba volatilized into air from spray solution applied to soil
Assay type: physicochemical
Details: dicamba salt 0.6 wt. % a.e., potassium glyphosate 0.9 wt. % a.e.; sprayed on soil at 10 GPA, 24 hours; vs CLARITY without glyphosate
Description: In another method, the volatility of solutions containing a herbicide salt can be evaluated by measuring herbicide concentrations in the gas phase (air) through air sampling in humidome plant growth chambers, which are maintained at constant temperature and humidity. For further details see the Humidome Protocol described in Example 2.
as §1
Humidomes were obtained from Hummert International (Part Nos 14-3850-2 for humidomes and 11-3050-1 for 1020 flat tray) and modified by cutting a 2.2 cm diameter hole on one end approximately 5 cm from the top to allow for insertion of a glass air sampling tube (22 mm OD) containing a polyurethane foam (PUF) filter. The sampling tube was secured with a VITON o-ring on each side of the humidome wall. The air sampling tube external to the humidome was fitted with tubing that was connected to a vacuum manifold immediately prior to sampling.
The flat tray beneath the humidome was filled with 1 liter of sifted dry or wet 50/50 soil (50% Redi-Earth and 50% US 10 Field Soil) to a depth of about 1 cm. To measure the dicamba concentration in the gas phase (air) volatilized from the spray solutions, samples of the spray solutions were sprayed over the soil in the humidome using a track sprayer at a rate of 10 gallons per acre (GPA). To avoid contamination of the sides of the flat tray, each tray was nested in an empty tray prior to spraying.
The flat tray bottom containing the dicamba formulation on soil was covered with a humidome lid and the lid was secured with clamps. The assembled humidomes were placed in a temperature and humidity controlled environment and connected to a vacuum manifold through the air sampling line. Air was drawn through the humidome and PUF at a rate of 2 liters per minutes (LPM) for 24 hours at which point the air sampling was stopped. The humidomes were then removed from the controlled environment and the PUF filter was removed. The PUF filter was extracted with 20 mL of methanol and the solution was analyzed for dicamba concentration using LC-MS methods known in the art.
For comparison, samples of spray solutions containing the diglycolamine salt of dicamba (i.e., CLARITY) at approximately the same weight percent a.e. as the tested dicamba salt sprays were subjected to the humidome tests.
as §2

Row | Compound | Volatility Reduction Over DGA Dicamba Spray (%) Humidome Test [%]
24 | CC(C)c1ncc[nH]1.COc1c(Cl)ccc(Cl)c1C(=O)O [Salt 9] | 63
25 | CCc1nc(C)c[nH]1.COc1c(Cl)ccc(Cl)c1C(=O)O [Salt 10] | 86
26 | CCc1ncc[nH]1.COc1c(Cl)ccc(Cl)c1C(=O)O [Salt 11] | 67
27 | COc1c(Cl)ccc(Cl)c1C(=O)O.Cc1ncc[nH]1 [Salt 12] | 46
28 | COc1c(Cl)ccc(Cl)c1C(=O)O.Cc1c[nH]c(-c2ccccc2)n1 [Salt 14] | 92
29 | C(CC1CCNCC1)CC1CCNCC1.COc1c(Cl)ccc(Cl)c1C(=O)O.COc1c(Cl)ccc(Cl)c1C(=O)O [Salt 22] | 68
30 | COc1c(Cl)ccc(Cl)c1C(=O)O.OCCN1CCN(CCO)CC1 [Salt 24] | 76

Same assay, conditions: dicamba salt 0.6 wt. % a.e., potassium glyphosate 1.2 wt. % a.e.; sprayed on soil at 10 GPA, 24 hours; vs CLARITY without glyphosate

Row | Compound | Volatility Reduction Over DGA Dicamba Spray (%) Humidome Test [%]
31 | CC(C)c1ncc[nH]1.COc1c(Cl)ccc(Cl)c1C(=O)O [Salt 9] | 67
32 | CCc1nc(C)c[nH]1.COc1c(Cl)ccc(Cl)c1C(=O)O [Salt 10] | 85
33 | CCc1ncc[nH]1.COc1c(Cl)ccc(Cl)c1C(=O)O [Salt 11] | 60
34 | COc1c(Cl)ccc(Cl)c1C(=O)O.Cc1ncc[nH]1 [Salt 12] | 50

Same assay, conditions: dicamba salt 2.4 wt. % a.e., potassium glyphosate 4.8 wt. % a.e.; sprayed on soil at 10 GPA, 24 hours; vs CLARITY without glyphosate

Row | Compound | Volatility Reduction Over DGA Dicamba Spray (%) Humidome Test [%]
35 | CCc1nc(C)c[nH]1.COc1c(Cl)ccc(Cl)c1C(=O)O [Salt 10] | 86
